What follows are molecules tested against T1, endogenous PIP4K2C C-terminally tagged with HiBiT peptide in MOLT-4 cells (Homo sapiens, UniProt Q8TBX8) (assay: HiBiT PIP4K2C degradation assay in MOLT-4 cells). Conditions: 24 hours, 10-point dose response, top concentration 10 micromolar, read-out: HiBIT-degradation MOLT4 PIP4k2C 24 hours DC50.
T1 construct: to C-terminally tag endogenous PIP4K2C with HiBiT peptide; host or cells: MOLT-4 (CRISPR-Cas9 knock-in clone)
T1 sequence (Q8TBX8 1-421): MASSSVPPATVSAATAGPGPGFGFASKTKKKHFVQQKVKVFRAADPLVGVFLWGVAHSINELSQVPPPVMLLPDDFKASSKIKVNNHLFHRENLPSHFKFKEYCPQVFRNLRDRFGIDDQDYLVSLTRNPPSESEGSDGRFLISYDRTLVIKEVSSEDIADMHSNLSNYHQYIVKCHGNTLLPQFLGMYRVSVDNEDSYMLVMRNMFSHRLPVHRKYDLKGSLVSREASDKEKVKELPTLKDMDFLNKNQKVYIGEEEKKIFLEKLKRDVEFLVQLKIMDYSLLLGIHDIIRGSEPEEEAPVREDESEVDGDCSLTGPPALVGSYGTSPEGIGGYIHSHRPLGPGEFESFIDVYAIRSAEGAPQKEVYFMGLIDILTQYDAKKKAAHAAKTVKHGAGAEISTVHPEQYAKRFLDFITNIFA
Type: cell-based
Experimental: Following clonal selection, genotype was confirmed by Sanger sequencing. […] Nano-Glo® HiBiT Lytic Assay System was purchased from Promega (Madison, WI, Catalog number N3030). Cell culture flasks and 384-well microplates were purchased from Corning (Glendale, AZ).
To study PIP4K2C degradation, 384-well plates were plated with a 10-point dose response curve, 3-fold dilution, in duplicate with a top starting concentration of 10 micromolar. Subsequently 22,500 cells were added to each well and incubated at 37C in 5% CO2 for 24 hours. At the end of the incubation time, cells were treated with the Nano-Glo® HiBiT Lytic Detection System following the manufacturer's instructions. Luminescence was measured with a PHERAstar FSX plate reader (BMG Labtech, Cary, NC). The Levenberg-Marquardt algorithm was used to fit a Hill equation to dose-response data to calculate DC50 values (see Table 6).

DC50, < 500 nM:
O=C1CCC(N2Cc3cc(OC4CCN(C(=O)CN5CCC6(CC5)CCN(c5cncc(Nc7ncc(Cl)c(-c8cccc(C9CC9)c8)n7)c5)C6=O)CC4)ccc3C2=O)C(=O)N1 (stereo not drawn) [Compound 199, 3-(5-((1-(2-(2-(5-((5-chloro-4-(3-cyclopropylphenyl)pyrimidin-2-yl)amino)pyridin-3-yl)-1-oxo-2,8-diazaspiro[4.5]decan-8-yl)acetyl)piperidin-4-yl)oxy)-1-oxoisoindolin-2-yl)piperidine-2,6-dione]
O=C1CCC(Nc2ccc(C3CCN(CC(=O)N4CCC5(CC4)CCN(c4cncc(Nc6ncc(Cl)c(-c7cccc(N8CCCCC8)c7)n6)c4)C5=O)CC3)cc2)C(=O)N1 (stereo not drawn) [Compound 185, 3-[4-[1-[2-[2-[5-[[5-chloro-4-[3-(1-piperidyl)phenyl]pyrimidin-2-yl]amino]-3-pyridyl]-1-oxo-2,8-diazaspiro[4.5]decan-8-yl]-2-oxo-ethyl]-4-piperidyl]anilino]piperidine-2,6-dione]
O=C(COc1ccc2c(c1)CN(C1CCC(=O)NC1=O)C2=O)NCCCCCCCCCC(=O)Nc1cncc(Nc2ncc(Cl)c(-c3cccc(-c4ccccc4)c3)n2)c1 (stereo not drawn) [Compound 60, N-(5-((4-([1,1′-biphenyl]-3-yl)-5-chloropyrimidin-2-yl)amino)pyridin-3-yl)-10-(2-((2-(2,6-dioxopiperidin-3-yl)-1-oxoisoindolin-5-yl)oxy)acetamido)decanamide]
O=C1CCC(N2Cc3cc(C4CCN(C(=O)CN5CCC(C(=O)Nc6cncc(Nc7ncc(Cl)c(-c8cccc(C9CC9)c8)n7)c6)CC5)CC4)ccc3C2=O)C(=O)N1 (stereo not drawn) [Compound 196, N-(5-((5-chloro-4-(3-cyclopropylphenyl)pyrimidin-2-yl)amino)pyridin-3-yl)-1-(2-(4-(2-(2,6-dioxopiperidin-3-yl)-1-oxoisoindolin-5-yl)piperidin-1-yl)-2-oxoethyl)piperidine-4-carboxamide]

Each molecule was assayed against T2, Human PIP4K2C (Homo sapiens, UniProt Q8TBX8) (assay: Enzyme binding assay (KINOMEscan), active site-directed competition binding). Conditions: 11-point dose response, duplicate, top concentration 5 micromolar; read-out: Pip4k2c Kd: IC50.
T2 construct: purchased Eurofins DiscoverX 87-0007-1094
T2 sequence (Q8TBX8 1-421): T1 sequence (Q8TBX8 1-421)
Method in brief: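 Active site-directed competition against immobilized ligand. 11-point dose response in duplicate, top concentration 5 micromolar; IC50 from Hill fit by Levenberg-Marquardt.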

IC50, < 500 nM:
O=C1CCCN1c1cncc(Nc2ncc(Cl)c(N3CCOC(c4ccccc4)C3)n2)c1 (stereo not drawn) [Compound 41, 1-[5-[[5-chloro-4-(2-phenylmorpholin-4-yl)pyrimidin-2-yl]amino]-3-pyridyl]pyrrolidin-2-one]
O=C1CCCN1c1cncc(Nc2ncc(Cl)c(N3CCCC(C4CC4)C3)n2)c1 (stereo not drawn) [Compound 126, 1-(5-((5-chloro-4-(3-cyclopropylpiperidin-1-yl)pyrimidin-2-yl)amino)pyridin-3-yl)pyrrolidin-2-one]
O=C1CCCN1c1cncc(Nc2ncc(Cl)c(C3CCCCC3)n2)c1 [Compound 97, 1-(5-((5-chloro-4-cyclohexylpyrimidin-2-yl)amino)pyridin-3-yl)pyrrolidin-2-one]
O=C1CCCN1c1cncc(Nc2ncc(Cl)c(-c3cccc(C4CCNCC4)c3)n2)c1 [Compound 26, 1-(5-((5-chloro-4-(3-(piperidin-4-yl)phenyl)pyrimidin-2-yl)amino)pyridin-3-yl)pyrrolidin-2-one]
O=C1CCCN1c1cncc(Nc2ncc(Cl)c(N3CCC[C@H](c4ccccc4)C3)n2)c1 [Compound 44, (R)-1-(5-((5-chloro-4-(3-phenylpiperidin-1-yl)pyrimidin-2-yl)amino)pyridin-3yl)pyrrolidin-2-one]
O=C1CCCN1c1cncc(Nc2ncc(Cl)c(N3CCC(C4CCCC4)C3)n2)c1 (stereo not drawn) [Compound 136, 1-(5-((5-chloro-4-(3-cyclopentylpyrrolidin-1-yl)pyrimidin-2-yl)amino)pyridin-3-yl)pyrrolidin-2-one]
O=C1CCCN1c1cncc(Nc2ncc(Cl)c(N3CCc4ccccc4C3)n2)c1 [Compound 128, 1-(5-((5-chloro-4-(3,4-dihydroisoquinolin-2(1H)-yl)pyrimidin-2-yl)amino)pyridin-3-yl)pyrrolidin-2-one]
CC(C)c1cc(-c2nc(Nc3cncc(N4CCCC4=O)c3)ncc2Cl)ccn1 [Compound 111, 1-(5-((5-chloro-4-(2-isopropylpyridin-4-yl)pyrimidin-2-yl)amino)pyridin-3-yl)pyrrolidin-2-one]
Cc1ccc(-c2cccc(-c3nc(Nc4cncc(N5CCCC5=O)c4)ncc3Cl)c2)cc1 [Compound 3, 1-(5-((5-chloro-4-(4′-methyl-[1,1′-biphenyl]-3-yl)pyrimidin-2-yl)amino)pyridin-3-yl)pyrrolidin-2-one]
O=C1CCCN1c1cncc(Nc2ncc(F)c(-c3ccc(=O)n(C4CCC4)c3)n2)c1 [Compound 157, 1-cyclobutyl-5-(5-fluoro-2-((5-(2-oxopyrrolidin-1-yl)pyridin-3-yl)amino)pyrimidin-4-yl)pyridin-2(1H)-one]
O=C1CCCN1c1cncc(Nc2ncc(Cl)c(-c3cccc(C4CCCCC4)c3)n2)c1 [Compound 19, 1-(5-((5-chloro-4-(3-cyclohexylphenyl)pyrimidin-2-yl)amino)pyridin-3-yl)pyrrolidin-2-one]
O=C1CCCN1c1cncc(Nc2ncc(F)c(-c3ccc(=O)n(C4COC4)c3)n2)c1 [Compound 155, 5-(5-fluoro-2-((5-(2-oxopyrrolidin-1-yl)pyridin-3-yl)amino)pyrimidin-4-yl)-1-(oxetan-3-yl)pyridin-2(1H)-one]
O=C(c1cc[nH]c(=O)c1)N1CCCC(c2nc(Nc3cncc(N4CCCC4=O)c3)ncc2Cl)C1 (stereo not drawn) [Compound 164, 4-(3-(5-chloro-2-((5-(2-oxopyrrolidin-1-yl)pyridin-3-yl)amino)pyrimidin-4-yl)piperidine-1-carbonyl)pyridin-2(1H)-one]
O=C1CCCN1c1cncc(Nc2ncc(Cl)c(N3CCCC(C4CCC4)C3)n2)c1 (stereo not drawn) [Compound 123, 1-(5-((5-chloro-4-(3-cyclobutylpiperidin-1-yl)pyrimidin-2-yl)amino)pyridin-3-yl)pyrrolidin-2-one]
CN1CCC(c2cccc(-c3nc(Nc4cncc(N5CCCC5=O)c4)ncc3Cl)c2)CC1 [Compound 27, 1-(5-((5-chloro-4-(3-(1-methylpiperidin-4-yl)phenyl)pyrimidin-2-yl)amino)pyridin-3-yl)pyrrolidin-2-one]
O=C1CCCN1c1cncc(Nc2ncc(Cl)c(-c3cccc(Cl)c3)n2)c1 [Compound 92, 1-(5-((5-chloro-4-(3-chlorophenyl)pyrimidin-2-yl)amino)pyridin-3-yl)pyrrolidin-2-one]
O=C1CCCN1c1cncc(Nc2ncc(Cl)c(C3CCCN(c4ccccc4)C3)n2)c1 (stereo not drawn) [Compound 141, 1-(5-((5-chloro-4-(1-phenylpiperidin-3-yl)pyrimidin-2-yl)amino)pyridin-3-yl)pyrrolidin-2-one]
CCCCNC(=O)C1CCCN(c2nc(Nc3cncc(N4CCCC4=O)c3)ncc2Cl)C1 (stereo not drawn) [Compound 109, N-butyl-1-(5-chloro-2-((5-(2-oxopyrrolidin-1-yl)pyridin-3-yl)amino)pyrimidin-4-yl)piperidine-3-carboxamide]
O=C1CCCN1c1cncc(Nc2ncc(Cl)c(-c3cnn(C4CCCCC4)c3)n2)c1 [Compound 139, 1-[5-[[5-chloro-4-(1-cyclohexylpyrazol-4-yl)pyrimidin-2-yl]amino]-3-pyridyl]pyrrolidin-2-one]
O=C1CCCN1c1cncc(Nc2ncc(Cl)c(-c3cccc(-c4cnccn4)c3)n2)c1 [Compound 17, 1-(5-((5-chloro-4-(3-(pyrazin-2-yl)phenyl)pyrimidin-2-yl)amino)pyridin-3-yl)pyrrolidin-2-one]
